The text below walks through data of patent US11708367B2, “Compounds for the treatment of kinase-dependent disorders” (Exelixis, Inc., priority 2018, dated 2023).

What is called IC50 is the point on the concentration scale where inhibition reaches its midpoint.

Common to all, as to assay type: cell-based
The target in one experiment is AXL (Homo sapiens (Human), UniProt P30530). Nature of the experiment: AXL autophosphorylation ELISA in A-172 cells. The note with it: cellular, Gas6-stimulated, phospho-AXL ELISA. An outline of the steps: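 A-172 glioblastoma cells, serum-starved 24 h, got 8-point compound dilutions (0.3% DMSO) for 1 h, then 1 μg/mL human Gas6 for 15 min. Phospho-AXL in lysates was quantified by ELISA against a standard, normalized between DMSO and reference-inhibitor controls; IC50 by 4-parameter logistic fit.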
On the technique in general: An ELISA detects its analyte on a solid surface through an enzyme-linked reagent.

The next experiment addresses Mer (Homo sapiens (Human), UniProt Q12866). The experiment in a line: Mer autophosphorylation ELISA in transient transfected 293A cells. The note with it: cellular, MERTK-transfected 293A cells, phospho-Mer ELISA. The procedure:
293A cells (Thermo Fisher #R70507) were seeded at 1.5×10^6 cells/well onto 100 mm dish (Greiner #664169), in DMEM (Thermo Fisher #11995-040) containing 10% FBS (Thermo Fisher #26140-079), 1% MEM NEAA (Thermo Fisher #11140-050), 1% GlutaMax (Thermo Fisher #35050-061), and 1% Penicillin Streptomycin (Thermo Fisher #15140-122). 293A cells were incubated at 37° C., 5% CO2 for 24 h and then transfected with 6 μg MERTK DNA (Genecopoeia #EX-Z8208-M02) using TransIT LT1 transfection reagent (Mirus-Bio #MIR2305). After 24 h incubation, the transfected 293A cells were seeded at 1×10^5 cells/well onto 96-well plates (Corning #3904) in DMEM growth medium overnight. Test compounds were serially diluted to produce an 8-point dose curve in fresh serum-free medium to a final concentration of 0.3% DMSO (vehicle) and added to the cells and incubated for 1 h. Cells were then immediately lysed with 150 μL of cold IX lysis buffer [20 mM Tris, 137 mM sodium chloride, 2 mM EDTA, 10% glycerol, 1% NP-40 alternative, 1 mM activated sodium orthovanadate, 1 mM PefaBloc SC (Sigma-Aldrich #11429868001), protease/phosphatase inhibitor tablet (Thermo Fisher #A32959)]. Lysates were clarified by centrifugation and 50 μL/well added into the human phospho-Mer DuoSet IC ELISA (R&D Systems #DYC2579-2). Assay was performed according to manufacturer's instructions and sample phospho-Mer concentrations were extrapolated using human phospho-Mer control (R&D Systems #841793) as a standard. Positive control wells (100% activity) contained DMSO-treated cell lysates. Negative control wells (0% activity) contained reference inhibitor-treated cell lysates. IC50 values were calculated by nonlinear regression analysis using a 4-parameter logistic curve fit in ActivityBase XE (IDBS).

The next experiment deals with KDR (Homo sapiens (Human), UniProt P35968). Nature of the experiment: KDR autophosphorylation ELISA in HUVEC cells. As to conditions: cellular, VEGF165-stimulated, phospho-KDR ELISA. An outline of the steps: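 Serum-starved (24 h) HUVECs were pre-treated with compound (8-point dose curve, 0.3% DMSO final) for 1 h, then stimulated with 100 ng/mL human VEGF165 for 5 min. Lysate phospho-KDR was quantified by ELISA against a phospho-KDR standard. IC50 came from a 4-parameter logistic fit, normalized to stimulated-DMSO (100%) and unstimulated (0%) controls.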

The target in the next experiment is Met (Homo sapiens (Human), UniProt P08581). The experiment in a line: Met autophosphorylation ELISA in PC-3 cells. The note with it: cellular, HGF-stimulated, phospho-Met ELISA, read-out: c-Met IC50. An outline of the steps: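 Serum-starved PC-3 cells treated 1 h with compound (8-point series, 0.3% DMSO), then stimulated 10 min with 100 ng/mL HGF. Phospho-Met (panTyr) quantified in lysates by sandwich ELISA; IC50 from 4-parameter logistic fit against DMSO and reference-inhibitor controls.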
Chain of Met (P08581 25-1390): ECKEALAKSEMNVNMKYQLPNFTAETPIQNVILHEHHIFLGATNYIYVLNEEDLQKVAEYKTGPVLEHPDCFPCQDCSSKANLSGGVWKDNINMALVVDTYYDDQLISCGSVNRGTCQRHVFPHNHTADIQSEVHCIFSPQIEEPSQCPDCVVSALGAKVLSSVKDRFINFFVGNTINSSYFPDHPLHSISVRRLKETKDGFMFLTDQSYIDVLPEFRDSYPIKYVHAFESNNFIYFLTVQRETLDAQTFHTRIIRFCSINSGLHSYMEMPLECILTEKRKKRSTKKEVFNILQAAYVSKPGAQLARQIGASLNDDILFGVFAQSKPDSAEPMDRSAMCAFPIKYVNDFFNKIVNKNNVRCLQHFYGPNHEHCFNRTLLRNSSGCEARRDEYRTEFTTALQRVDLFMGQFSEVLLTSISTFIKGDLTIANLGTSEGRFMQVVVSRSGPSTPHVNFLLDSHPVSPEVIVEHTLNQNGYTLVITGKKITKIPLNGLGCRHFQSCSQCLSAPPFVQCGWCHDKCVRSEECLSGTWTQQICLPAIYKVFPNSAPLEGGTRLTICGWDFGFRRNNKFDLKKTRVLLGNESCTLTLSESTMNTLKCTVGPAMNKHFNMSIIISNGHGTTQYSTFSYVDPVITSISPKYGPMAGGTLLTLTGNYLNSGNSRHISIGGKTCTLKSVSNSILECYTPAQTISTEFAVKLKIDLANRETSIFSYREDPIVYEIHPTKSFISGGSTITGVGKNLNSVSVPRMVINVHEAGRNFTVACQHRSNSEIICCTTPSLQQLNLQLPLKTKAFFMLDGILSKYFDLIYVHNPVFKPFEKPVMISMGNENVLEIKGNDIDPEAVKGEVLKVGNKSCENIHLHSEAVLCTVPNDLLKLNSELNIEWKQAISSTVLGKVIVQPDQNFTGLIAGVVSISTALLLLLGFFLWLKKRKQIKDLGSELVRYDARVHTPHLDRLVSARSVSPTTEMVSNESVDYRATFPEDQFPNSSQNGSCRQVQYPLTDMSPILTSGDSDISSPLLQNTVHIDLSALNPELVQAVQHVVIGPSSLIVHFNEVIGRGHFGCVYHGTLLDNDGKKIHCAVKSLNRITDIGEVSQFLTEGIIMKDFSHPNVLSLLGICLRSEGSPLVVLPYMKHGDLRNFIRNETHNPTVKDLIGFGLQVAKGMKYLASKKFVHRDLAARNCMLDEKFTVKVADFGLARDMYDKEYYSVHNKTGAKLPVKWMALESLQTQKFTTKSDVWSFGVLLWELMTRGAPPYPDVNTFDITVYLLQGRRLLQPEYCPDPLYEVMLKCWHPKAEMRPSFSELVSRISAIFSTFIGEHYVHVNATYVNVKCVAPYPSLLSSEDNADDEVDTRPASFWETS

Chain of Mer (Q12866 21-999): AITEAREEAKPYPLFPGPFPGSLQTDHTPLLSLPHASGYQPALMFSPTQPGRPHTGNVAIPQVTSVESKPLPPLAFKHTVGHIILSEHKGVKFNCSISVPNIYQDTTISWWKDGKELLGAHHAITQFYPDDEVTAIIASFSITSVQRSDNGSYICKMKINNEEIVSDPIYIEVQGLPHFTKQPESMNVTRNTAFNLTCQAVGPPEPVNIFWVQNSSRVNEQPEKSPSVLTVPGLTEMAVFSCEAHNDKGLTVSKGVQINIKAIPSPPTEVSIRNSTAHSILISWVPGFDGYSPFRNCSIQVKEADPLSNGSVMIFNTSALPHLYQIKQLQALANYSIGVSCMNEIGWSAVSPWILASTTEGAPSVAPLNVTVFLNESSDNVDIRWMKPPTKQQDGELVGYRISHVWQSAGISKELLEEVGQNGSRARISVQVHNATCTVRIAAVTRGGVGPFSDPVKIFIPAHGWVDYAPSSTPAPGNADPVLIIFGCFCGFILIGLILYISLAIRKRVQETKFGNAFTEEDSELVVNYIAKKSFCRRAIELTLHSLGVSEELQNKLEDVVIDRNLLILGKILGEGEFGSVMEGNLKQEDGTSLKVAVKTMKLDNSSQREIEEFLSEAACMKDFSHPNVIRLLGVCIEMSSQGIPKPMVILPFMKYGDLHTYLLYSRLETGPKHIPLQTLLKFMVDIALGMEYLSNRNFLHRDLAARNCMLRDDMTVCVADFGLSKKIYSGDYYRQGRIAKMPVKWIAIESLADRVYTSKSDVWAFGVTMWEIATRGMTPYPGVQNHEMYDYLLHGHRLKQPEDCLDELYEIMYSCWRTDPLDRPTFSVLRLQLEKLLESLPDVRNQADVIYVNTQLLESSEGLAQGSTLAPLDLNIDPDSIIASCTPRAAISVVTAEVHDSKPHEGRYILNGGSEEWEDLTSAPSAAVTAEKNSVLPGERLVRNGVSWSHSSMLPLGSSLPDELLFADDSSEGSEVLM
Chain of KDR (P35968 20-1356): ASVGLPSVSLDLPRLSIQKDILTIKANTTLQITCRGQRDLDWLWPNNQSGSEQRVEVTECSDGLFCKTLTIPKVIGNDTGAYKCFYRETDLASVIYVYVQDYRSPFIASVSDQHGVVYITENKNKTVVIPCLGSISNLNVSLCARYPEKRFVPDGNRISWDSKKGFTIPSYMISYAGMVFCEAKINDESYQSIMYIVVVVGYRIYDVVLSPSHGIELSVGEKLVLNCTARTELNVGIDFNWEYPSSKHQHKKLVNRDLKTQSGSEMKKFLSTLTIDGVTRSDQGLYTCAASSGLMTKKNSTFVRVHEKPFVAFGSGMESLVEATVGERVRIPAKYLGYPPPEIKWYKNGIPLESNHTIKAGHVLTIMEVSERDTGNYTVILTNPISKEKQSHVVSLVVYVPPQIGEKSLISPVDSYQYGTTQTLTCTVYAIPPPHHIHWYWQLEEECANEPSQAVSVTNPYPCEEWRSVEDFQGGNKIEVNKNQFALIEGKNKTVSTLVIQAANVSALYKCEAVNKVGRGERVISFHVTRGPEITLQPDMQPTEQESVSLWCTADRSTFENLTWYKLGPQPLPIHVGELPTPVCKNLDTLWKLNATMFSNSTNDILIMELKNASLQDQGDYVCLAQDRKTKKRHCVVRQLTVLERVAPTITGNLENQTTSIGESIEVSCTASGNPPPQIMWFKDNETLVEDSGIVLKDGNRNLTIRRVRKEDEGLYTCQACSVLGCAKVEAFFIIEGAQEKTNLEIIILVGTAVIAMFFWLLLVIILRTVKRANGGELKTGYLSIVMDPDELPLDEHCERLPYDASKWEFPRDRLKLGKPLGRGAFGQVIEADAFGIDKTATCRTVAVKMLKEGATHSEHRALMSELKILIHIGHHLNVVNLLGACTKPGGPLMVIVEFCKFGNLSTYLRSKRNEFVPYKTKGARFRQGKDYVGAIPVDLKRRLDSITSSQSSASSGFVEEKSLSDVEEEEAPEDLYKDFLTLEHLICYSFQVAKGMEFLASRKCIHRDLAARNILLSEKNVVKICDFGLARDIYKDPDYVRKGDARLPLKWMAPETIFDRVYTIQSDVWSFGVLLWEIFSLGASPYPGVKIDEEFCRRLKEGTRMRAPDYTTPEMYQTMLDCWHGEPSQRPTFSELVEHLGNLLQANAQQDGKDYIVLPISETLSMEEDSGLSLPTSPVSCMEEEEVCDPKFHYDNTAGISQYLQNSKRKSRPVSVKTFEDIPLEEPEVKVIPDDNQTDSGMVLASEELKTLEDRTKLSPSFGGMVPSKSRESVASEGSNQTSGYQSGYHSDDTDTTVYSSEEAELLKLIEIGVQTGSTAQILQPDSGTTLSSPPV
Chain of AXL (P30530 26-894): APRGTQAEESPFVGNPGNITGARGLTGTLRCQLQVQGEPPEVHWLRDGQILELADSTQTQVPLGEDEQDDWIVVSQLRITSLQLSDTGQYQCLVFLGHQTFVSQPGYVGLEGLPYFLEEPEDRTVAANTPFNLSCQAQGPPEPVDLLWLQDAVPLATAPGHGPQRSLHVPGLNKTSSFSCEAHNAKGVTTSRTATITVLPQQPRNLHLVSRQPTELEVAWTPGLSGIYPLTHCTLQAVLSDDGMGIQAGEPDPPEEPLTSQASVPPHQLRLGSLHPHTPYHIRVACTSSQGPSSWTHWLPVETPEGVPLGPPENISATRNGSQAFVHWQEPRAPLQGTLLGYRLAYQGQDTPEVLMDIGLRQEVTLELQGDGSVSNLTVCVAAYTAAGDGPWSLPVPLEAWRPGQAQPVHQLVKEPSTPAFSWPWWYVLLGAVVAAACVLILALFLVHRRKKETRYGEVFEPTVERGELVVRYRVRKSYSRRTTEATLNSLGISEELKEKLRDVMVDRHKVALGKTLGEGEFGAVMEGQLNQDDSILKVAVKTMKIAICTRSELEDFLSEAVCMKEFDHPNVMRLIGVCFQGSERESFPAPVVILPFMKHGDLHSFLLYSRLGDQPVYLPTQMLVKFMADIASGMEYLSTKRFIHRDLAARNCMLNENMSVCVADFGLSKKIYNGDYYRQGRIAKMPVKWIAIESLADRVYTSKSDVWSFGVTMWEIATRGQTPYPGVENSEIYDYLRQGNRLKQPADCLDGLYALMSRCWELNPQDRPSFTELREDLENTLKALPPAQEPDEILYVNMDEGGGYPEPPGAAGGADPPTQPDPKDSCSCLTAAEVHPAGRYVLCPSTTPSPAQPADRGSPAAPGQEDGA

For `COCCOc1cc2ncnc(Oc3ccc(NC(=O)C4(C(=O)Nc5ccc(F)cc5)CC4)cc3F)c2nc1OC` [Compound 79, 1-N′-[3-fluoro-4-[6-methoxy-7-(2-methoxyethoxy)pyrido[3,2-d]pyrimidin-4-yl]oxy-phenyl]-1-N-(4-fluorophenyl)cyclopropane-1,1-dicarboxamide], the IC50 at AXL is no more than 10 nM; against Mer it was no more than 10 nM; on KDR it was no more than 10 nM; on Met it was 10 to 100 nM.

`COCCOc1cc2ncnc(Oc3ccc(NC(=O)C4(C(=O)Nc5ccc(F)cc5)CC4)cc3Cl)c2nc1OC` [Compound 80, 1-N′-[3-chloro-4-[6-methoxy-7-(2-methoxyethoxy)pyrido[3,2-d]pyrimidin-4-yl]oxy-phenyl]-1-N-(4-fluorophenyl)cyclo-propane-1,1-dicarboxamide]: the IC50 against AXL was 10 to 100 nM; on Mer, no more than 10 nM; against KDR, no more than 10 nM; at Met it was 10 to 100 nM.

As to `COCCOc1cc2ncnc(Oc3ccc(NC(=O)C4(C(=O)Nc5ccc(F)cc5)CC4)c(F)c3)c2nc1OC` [Compound 81, 1-N′-[2-fluoro-4-[6-methoxy-7-(2-methoxyethoxy)pyrido[3,2-d]pyrimidin-4-yl]oxy-phenyl]-1-N-(4-fluorophenyl)cyclopropane-1,1-dicarboxamide], the IC50 is no more than 10 nM on AXL, no more than 10 nM against Mer, 10 to 100 nM against KDR and 10 to 100 nM at Met.

Turning to `COCCOc1cc2ncnc(Oc3ccc(NC(=O)C4(C(=O)Nc5ccc(F)cc5)CC4)c(F)c3F)c2nc1OC` [Compound 82, 1-N′-[2,3-difluoro-4-[6-methoxy-7-(2-methoxy-ethoxy)pyrido[3,2-d]pyrimidin-4-yl]oxyphenyl]-1-N-(4-fluorophenyl)cyclo-propane-1,1-dicarboxamide], the IC50 is no more than 10 nM at AXL, 10 to 100 nM on Mer, no more than 10 nM against KDR and 10 to 100 nM on Met.

Take `COCCOc1cc2ncnc(Oc3cc(F)c(NC(=O)C4(C(=O)Nc5ccc(F)cc5)CC4)cc3F)c2nc1OC` [Compound 83, 1-N′-[2,5-difluoro-4-[6-methoxy-7-(2-methoxy-ethoxy)pyrido[3,2-d]pyrimidin-4-yl]oxyphenyl]-1-N-(4-fluorophenyl)cyclopropane-1,1-dicarboxamide]: the IC50 at AXL was no more than 10 nM; at Mer, no more than 10 nM; against KDR, no more than 10 nM; at Met it was 10 to 100 nM.

With `Cn1cc(-c2cnc3c(Oc4ccc(NC(=O)C5(C(=O)Nc6ccc(F)cc6)CC5)cc4)ncnc3c2)cn1` [Compound 129, 1-N′-(4-fluorophenyl)-1-N-[4-[7-(1-methylpyrazol-4-yl)pyrido[3,2-d]pyrimidin-4-yl]oxyphenyl]cyclo-propane-1,1-dicarboxamide], the IC50 at AXL was 10 to 100 nM; at Mer, 100 to 300 nM; against KDR it was 100 to 300 nM; at Met, 100 to 300 nM.

Turning to `Cn1cc(-c2cc3ncnc(Oc4ccc(NC(=O)C5(C(=O)Nc6ccc(F)cc6)CC5)cc4)c3cn2)cn1` [Compound 130, 1-N′-(4-fluorophenyl)-1-N-[4-[7-(1-methylpyrazol-4-yl)pyrido[4,3-d]pyrimidin-4-yl]oxyphenyl]cyclopropane-1,1-dicarboxamide], the IC50 was 10 to 100 nM against AXL, 10 to 100 nM at Mer, no more than 10 nM at KDR and 10 to 100 nM at Met.

`COCCOc1cc2nccc(Oc3ccc(NC(=O)C4(C(=O)Nc5ccc(F)cc5)CC4)cc3)c2nc1OC` [Compound 149, 1-N′-(4-fluorophenyl)-1-N-[4-[[6-methoxy-7-(2-methoxyethoxy)-1,5-naphthyridin-4-yl]oxy]phenyl]cyclopropane-1,1-dicarboxamide]: the concentration for half-maximal inhibition (IC50) at AXL is no more than 10 nM; against Mer, no more than 10 nM; on KDR, no more than 10 nM; at Met it was 10 to 100 nM.

`COCCOc1cc2nccc(Oc3ccc(NC(=O)C4(C(=O)Nc5ccc(F)cc5)CC4)cc3F)c2nc1OC` [Compound 150, 1-N′-[3-fluoro-4-[[6-methoxy-7-(2-methoxyethoxy)-1,5-naphthyridin-4-yl]oxy]phenyl]-1-N-(4-fluoro-phenyl)cyclopropane-1,1-dicarboxamide]: the half-maximal inhibitory concentration (IC50) at AXL, at Mer, against KDR and at Met was no more than 10 nM each time.

Consider `COCCOc1cc2nccc(Oc3ccc(NC(=O)C4(C(=O)Nc5ccc(F)cc5)CC4)cc3Cl)c2nc1OC` [Compound 151, 1-N′-[3-chloro-4-[[6-methoxy-7-(2-methoxyethoxy)-1,5-naphthyridin-4-yl]oxy]phenyl]-1-N-(4-fluoro-phenyl)cyclopropane-1,1-dicarboxamide], for which the IC50 on AXL is 10 to 100 nM; against Mer, 10 to 100 nM; on KDR, no more than 10 nM; on Met, 10 to 100 nM.
